Laboratory results from ChEMBL document CHEMBL4033623, “Synthesis of xanthone derivatives and studies on the inhibition against cancer cells growth and synergistic combinations of them” (Eur J Med Chem, 2017).
Calls of active or inactive are those of the source. The calls are words filed in the database; no cut-off is given here.

Key:
MDA-MB-231 [1] = assay: Antiproliferative activity against human MDA-MB-231 cells after 48 hrs by CCK8 assay; assay type: functional, cell-based; settings: MDA-MB-231, 48 h
K562 = assay: Antiproliferative activity against human K562 cells after 48 hrs by CCK8 assay; assay type: functional, cell-based; settings: K562, 48 h
COLO 320 [2] = assay: Antiproliferative activity against human COLO320 cells after 48 hrs by CCK8 assay; assay type: functional, cell-based; settings: COLO 320, 48 h
MDA-MB-231 [3] = assay: Synergistic antiproliferative activity against human MDA-MB-231 cells at compound to DMXAA mol ratio of 1:1 after 48 hrs by CCK8 assay; assay type: functional, cell-based; settings: MDA-MB-231, 48 h
MCF7 = assay: Synergistic antiproliferative activity against human MCF7 cells at compound to DMXAA mol ratio of 1:1 after 48 hrs by CCK8 assay; assay type: functional, cell-based; settings: MCF7, 48 h
HepG2 = assay: Synergistic antiproliferative activity against human HepG2 cells at compound to DMXAA mol ratio of 1:1 after 48 hrs by CCK8 assay; assay type: functional, cell-based; settings: HepG2, 48 h
COLO 320 [4] = assay: Synergistic antiproliferative activity against human COLO320 cells at compound to DMXAA mol ratio of 1:1 after 48 hrs by CCK8 assay; assay type: functional, cell-based; settings: COLO 320, 48 h
L02 = assay: Cytotoxicity against human HL-7702 cells after 48 hrs by CCK8 assay; assay type: cell-based; settings: L02, 48 h
MDA-MB-231 [5] = assay: Induction of apoptosis in human MDA-MB-231 cells assessed as viable cells at 0.2 uM after 48 hrs by Annexin-V/FITC/PI staining based flow cytometry (reference value: 96.51 %); assay type: functional; settings: MDA-MB-231, 48 h, read-out: Activity
MDA-MB-231 [6] = assay: Induction of apoptosis in human MDA-MB-231 cells assessed as early apoptotic cells at 0.2 uM after 48 hrs by Annexin-V/FITC/PI staining based flow cytometry (reference value: 0.44 %); assay type: functional
MDA-MB-231 [7] = assay: Induction of apoptosis in human MDA-MB-231 cells assessed as necrotic cells at 0.2 uM after 48 hrs by Annexin-V/FITC/PI staining based flow cytometry (reference value: 1.55 %); assay type: functional
MDA-MB-231 [8] = assay: Induction of apoptosis in human MDA-MB-231 cells assessed as viable cells at 0.4 uM after 48 hrs by Annexin-V/FITC/PI staining based flow cytometry (reference value: 96.51 %); assay type: functional; settings: MDA-MB-231, 48 h, read-out: Activity
MDA-MB-231 [9] = assay: Induction of apoptosis in human MDA-MB-231 cells assessed as early apoptotic cells at 0.4 uM after 48 hrs by Annexin-V/FITC/PI staining based flow cytometry (reference value: 0.44 %); assay type: functional
MDA-MB-231 [10] = assay: Induction of apoptosis in human MDA-MB-231 cells assessed as necrotic cells at 0.4 uM after 48 hrs by Annexin-V/FITC/PI staining based flow cytometry (reference value: 1.55 %); assay type: functional
MDA-MB-231 [11] = assay: Induction of apoptosis in human MDA-MB-231 cells assessed as viable cells at 0.8 uM after 48 hrs by Annexin-V/FITC/PI staining based flow cytometry (reference value: 96.51 %); assay type: functional; settings: MDA-MB-231, 48 h, read-out: Activity
MDA-MB-231 [12] = assay: Induction of apoptosis in human MDA-MB-231 cells assessed as necrotic cells at 0.8 uM after 48 hrs by Annexin-V/FITC/PI staining based flow cytometry (reference value: 1.55 %); assay type: functional
MDA-MB-231 [13] = assay: Synergistic induction of apoptosis in human MDA-MB-231 cells assessed as early apoptotic cells at 0.2 uM after 48 hrs in presence of DMXAA by Annexin-V/FITC/PI staining based flow cytometry (reference value: 0.05 %); assay type: functional
MDA-MB-231 [14] = assay: Synergistic induction of apoptosis in human MDA-MB-231 cells assessed as necrotic cells at 0.2 uM after 48 hrs in presence of DMXAA by Annexin-V/FITC/PI staining based flow cytometry (reference value: 0.00 %); assay type: functional
MDA-MB-231 [15] = assay: Synergistic induction of apoptosis in human MDA-MB-231 cells assessed as late apoptotic cells at 0.8 uM after 48 hrs in presence of DMXAA by Annexin-V/FITC/PI staining based flow cytometry (reference value: 0.00 %); assay type: functional
MDA-MB-231 [16] = assay: Synergistic induction of apoptosis in human MDA-MB-231 cells assessed as viable cells at 0.4 uM after 48 hrs in presence of DMXAA by Annexin-V/FITC/PI staining based flow cytometry (reference value: 99.95 %); assay type: functional; settings: MDA-MB-231, 48 h, read-out: Activity
MDA-MB-231 [17] = assay: Synergistic induction of apoptosis in human MDA-MB-231 cells assessed as late apoptotic cells at 0.4 uM after 48 hrs in presence of DMXAA by Annexin-V/FITC/PI staining based flow cytometry (reference value: 0.00 %); assay type: functional
MDA-MB-231 [18] = assay: Decrease in caspase-3 level in human MDA-MB-231 cells at 0.2 to 0.8 uM after 48 hrs by Western blot analysis; assay type: functional, cell-based
MDA-MB-231 [19] = assay: Induction of apoptosis in human MDA-MB-231 cells assessed as increase in cleaved caspase-3 expression at 0.2 to 0.8 uM after 48 hrs by Western blot analysis; assay type: functional, cell-based
MDA-MB-231 [20] = assay: Induction of apoptosis in human MDA-MB-231 cells assessed as increase in cleaved PARP expression at 0.2 to 0.8 uM after 48 hrs by Western blot analysis; assay type: functional, cell-based
MDA-MB-231 [21] = assay: Synergistic induction of apoptosis in human MDA-MB-231 cells assessed as increase in cleaved PARP level at 0.1 to 0.5 uM after 48 hrs in presence of DMXAA by Western blot analysis; assay type: functional, cell-based
MDA-MB-231 [22] = assay: Synergistic induction of apoptosis in human MDA-MB-231 cells assessed as increase in cleaved caspase-3 level at 0.1 to 0.5 uM after 48 hrs in presence of DMXAA by Western blot analysis; assay type: functional, cell-based
MDA-MB-231 [23] = assay: Synergistic induction of apoptosis in human MDA-MB-231 cells assessed as decrease in caspase-9 level at 0.1 to 0.5 uM after 48 hrs in presence of DMXAA by Western blot analysis; assay type: functional, cell-based
MDA-MB-231 [24] = assay: Synergistic induction of apoptosis in human MDA-MB-231 cells assessed as decrease in caspase-3 level at 0.1 to 0.5 uM after 48 hrs in presence of DMXAA by Western blot analysis; assay type: functional, cell-based
MDA-MB-231 [25] = assay: Increase in p53 level in human MDA-MB-231 cells at 0.2 to 0.8 uM after 48 hrs by Western blot analysis; assay type: functional, cell-based
MDA-MB-231 [26] = assay: Decrease in MDM2 level in human MDA-MB-231 cells at 0.2 to 0.8 uM after 48 hrs by Western blot analysis; assay type: functional, cell-based
MDA-MB-231 [27] = assay: Synergistic cell cycle arrest in human MDA-MB-231 cells assessed as accumulation at S phase 0.2 to 0.8 uM after 48 hrs in presence of DMXAA by propidium iodide staining based flow cytometric method relative to control; assay type: functional
MDA-MB-231 [28] = assay: Synergistic cell cycle arrest in human MDA-MB-231 cells assessed as accumulation at G2/M phase at 0.2 to 0.8 uM after 48 hrs in presence of DMXAA by propidium iodide staining based flow cytometric method; assay type: functional
MDA-MB-231 [29] = assay: Induction of apoptosis in human MDA-MB-231 cells after 48 hrs by Annexin-V/FITC/PI staining based flow cytometry; assay type: functional, cell-based
MDA-MB-231 [30] = assay: Induction of apoptosis in human MDA-MB-231 cells after 48 hrs in presence of DMXAA by Annexin-V/FITC/PI staining based flow cytometry; assay type: functional, cell-based

## O=c1c2cc(Br)ccc2oc2cc(O)cc(O)c12
MDA-MB-231 [1]
  IC50: 0.46 µM
K562
  IC50: 13.4 µM
COLO 320 [2]
  IC50: 10.5 µM
MDA-MB-231 [3]
  IC50: 0.042 µM
MCF7
  IC50: 2.41 µM
HepG2
  IC50: 7.21 µM
COLO 320 [4]
  IC50: 5.12 µM
L02
  IC50: 565 µM
MDA-MB-231 [5]
  viability at 0.2 µM: 79.2%
MDA-MB-231 [6]
  Activity: 0.98%
MDA-MB-231 [7]
  Activity: 14.44%
MDA-MB-231 [8]
  viability at 0.4 µM: 47.9%
MDA-MB-231 [9]
  Activity: 1.74%
MDA-MB-231 [10]
  Activity: 38.81%
MDA-MB-231 [11]
  viability at 0.8 µM: 39.1%
MDA-MB-231 [12]
  Activity: 45.02%
MDA-MB-231 [13]
  Activity: 2.79%
MDA-MB-231 [14]
  Activity: 38.43%
MDA-MB-231 [15]
  Activity: 34.65%
MDA-MB-231 [16]
  viability at 0.4 µM: 46.3%
MDA-MB-231 [17]
  Activity: 26.7%
MDA-MB-231 [18]
  Activity: Active
MDA-MB-231 [19]
  Activity: Active
MDA-MB-231 [20]
  Activity: Active
MDA-MB-231 [21]
  Activity: Active
MDA-MB-231 [22]
  Activity: Active
MDA-MB-231 [23]
  Activity: Active
MDA-MB-231 [24]
  Activity: Active
MDA-MB-231 [25]
  Activity: Active
MDA-MB-231 [26]
  Activity: Active
MDA-MB-231 [27]
  Activity: 26.5%
MDA-MB-231 [28]
  Activity: inactive
MDA-MB-231 [29]
  Activity: Dose-dependent effect
MDA-MB-231 [30]
  Activity: Dose-dependent effect
